Source: US12667106B2, “Stabilized mutants of quorum quenching lactonase and use thereof in treatment of pathogens” (priority 2019, dated 2026)

Experiments:
Erwinia amylovora [1] = format: in vivo; conditions: field, 13 days post inoculation, FIG. 5C
Erwinia amylovora [2] = format: in vivo; conditions: 6 days post inoculation, 4 ppm, growth chamber

## CCn1cc(C(=O)O)c(=O)c2cc3c(cc21)OCO3 [oxolinic acid]
Erwinia amylovora [1]
  inhibition of fire blight symptoms: 70%
Erwinia amylovora [2]
  inhibition of flower infection relative to untreated control: 45%
